Measured values reported in the supplement of paper PMC10307832.

Experiments:
Assay in all cases: relative viability (nuclei count vs DMSO), 5 days (fraction); higher = more cells survive
XMD14-99 + Navitoclax = compound: CN1CCN(CC1)C2=CC(=C(C=C2)NC3=NC(=C(S3)C(=O)C4=C(C=CC=C4Cl)Cl)N)OC [XMD14-99] + CC1(C)CCC(c2ccc(Cl)cc2)=C(CN2CCN(c3ccc(C(=O)NS(=O)(=O)c4ccc(N[C@H](CCN5CCOCC5)CSc5ccccc5)c(S(=O)(=O)C(F)(F)F)c4)cc3)CC2)C1 [Navitoclax] (partner 0.5 µM)
Summary of the method: (§1)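 Lung cancer cell lines in 1536-well plates were dosed by pin tool the day after seeding, either with one drug alone or with a fixed anchor-drug dose plus five library-drug doses (not always all listed) in √10 steps. After 5 days, cells were fixed and their nuclei stained in one step (final 0.05% Triton X-100, 1% formaldehyde, 1 ug/ml Hoechst), then counted on 4× images. Relative viability is the nuclei count in treated wells divided by that in vehicle wells. Values are medians of duplicate plates.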

AZD1208 = compound: N[C@@H]1CCCN(c2c(/C=C3\SC(=O)NC3=O)cccc2-c2ccccc2)C1 [AZD1208]
Summary of the method: (§2)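 In 1536-well plates, lung cancer cell lines rested overnight at 37 °C before five library-drug doses (not always all listed), √10 apart, were pinned onto vehicle-anchored plates. Nuclei were counted with MetaXpress from 4× Hoechst images taken after 5 days without medium change. Viability compares treated-well with vehicle-well nuclei as a median over plates, and plates needed control CV below 25% plus at least one doubling to pass.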

XMD14-99 = compound: CN1CCN(CC1)C2=CC(=C(C=C2)NC3=NC(=C(S3)C(=O)C4=C(C=CC=C4Cl)Cl)N)OC [XMD14-99]
Summary of the method: as §2

XMD14-99 + Foretinib = compound: CN1CCN(CC1)C2=CC(=C(C=C2)NC3=NC(=C(S3)C(=O)C4=C(C=CC=C4Cl)Cl)N)OC [XMD14-99] + COc1cc2c(Oc3ccc(NC(=O)C4(C(=O)Nc5ccc(F)cc5)CC4)cc3F)ccnc2cc1OCCCN1CCOCC1 [Foretinib] (partner 0.25 µM)
Summary of the method: as §1

Cell Line | relative viability (XMD14-99 + Navitoclax; first compound 0.08 µM) | relative viability (XMD14-99 + Navitoclax; first compound 0.8 µM) | relative viability (XMD14-99 + Navitoclax; first compound 2.53 µM) | relative viability (XMD14-99 + Navitoclax; first compound 8 µM) | relative viability (AZD1208; 0.08 µM) | relative viability (AZD1208; 0.253 µM) | relative viability (AZD1208; 0.8 µM) | relative viability (AZD1208; 2.53 µM) | relative viability (AZD1208; 8 µM) | relative viability (XMD14-99; 0.08 µM) | relative viability (XMD14-99; 0.8 µM) | relative viability (XMD14-99; 2.53 µM) | relative viability (XMD14-99; 8 µM) | relative viability (XMD14-99 + Foretinib; first compound 0.08 µM) | relative viability (XMD14-99 + Foretinib; first compound 0.8 µM) | relative viability (XMD14-99 + Foretinib; first compound 2.53 µM) | relative viability (XMD14-99 + Foretinib; first compound 8 µM)
HCC-44 | 1.07 | 0.888 | 0.935 | 0.9 | 1.11 | 0.933 | 1.01 | 1.09 | 1.05 | 1.04 | 0.969 | 1.02 | 0.948 |  |  |  | 
HCC-827 | 1.06 | 0.99 | 0.793 | 0.873 | 1.08 | 1.08 | 1.05 | 1.08 | 1.01 | 1.06 | 0.972 | 0.961 | 0.881 | 1.06 | 0.935 | 0.978 | 0.727
NCI-H1623 |  |  |  |  | 0.984 | 0.912 | 0.764 | 0.871 | 0.746 | 0.959 | 0.99 | 1.01 | 0.804 | 0.852 | 0.86 | 0.88 | 0.68
NCI-H2405 | 0.825 | 1.05 | 0.877 | 0.436 | 1.01 | 0.938 | 0.942 | 0.964 | 0.947 | 0.962 | 1.02 | 0.964 | 0.726 | 1.04 | 1.03 | 1.02 | 0.838
PC-3 [JPC-3] | 0.794 | 0.756 | 0.768 | 0.667 | 1.05 | 1.06 | 1.08 | 1.17 | 1.08 | 1.08 | 1.03 | 0.95 | 0.818 | 1.06 | 0.957 | 0.858 | 0.762
NCI-H1651 | 0.982 | 1.04 | 0.933 | 0.943 | 0.954 | 1.07 | 0.83 | 0.928 | 0.856 | 0.972 | 0.984 | 0.964 | 0.845 | 0.811 | 0.706 | 0.866 | 0.694
HARA | 1.15 | 1.18 | 1.17 | 1.02 | 0.935 | 1.17 | 0.974 | 0.931 | 0.997 | 0.894 | 0.947 | 0.701 | 0.692 | 0.791 | 0.793 | 0.748 | 0.757
NCI-H1650 | 1.15 | 1.44 | 0.992 | 1.04 | 0.924 | 1.1 | 0.868 | 0.898 | 0.88 | 0.818 | 0.976 | 0.805 | 0.807 | 1.14 | 1.27 | 1.13 | 0.941
NCI-H1395 | 1.06 | 1.11 | 1.09 | 0.902 | 1.15 | 1 | 0.93 | 0.913 | 0.697 | 0.981 | 0.951 | 0.997 | 0.695 | 0.986 | 0.965 | 0.998 | 0.901
NCI-H1563 |  |  |  |  | 0.962 | 0.928 | 0.952 | 0.956 | 0.923 | 0.926 | 0.999 | 0.92 | 0.833 | 0.878 | 0.941 | 0.871 | 0.74
ABC-1 |  |  |  |  | 0.965 | 0.966 | 0.856 | 0.923 | 0.899 | 0.99 | 1.03 | 0.964 | 0.727 | 1.14 | 0.883 | 0.957 | 0.937
SW 900 |  |  |  |  | 0.837 | 0.989 | 0.822 | 1 | 0.799 | 0.918 | 0.976 | 0.753 | 0.66 | 1.02 | 0.694 | 0.802 | 0.718
NCI-H1648 |  |  |  |  | 0.981 | 1.25 | 0.921 | 1.04 | 1.05 | 0.845 | 0.713 | 0.734 | 0.454 |  |  |  | 
NCI-H1792 | 0.747 | 0.638 | 0.561 | 0.41 | 1.08 | 1.05 | 0.646 | 0.954 | 0.664 | 1.02 | 0.879 | 0.818 | 0.471 |  |  |  | 
LCLC-103H |  |  |  |  | 1.02 | 1.04 | 0.938 | 0.773 | 0.777 | 0.953 | 1.02 | 0.963 | 0.907 | 0.802 | 0.691 | 0.734 | 0.607
NCI-H358 |  |  |  |  | 0.904 | 0.78 | 0.798 | 0.862 | 0.729 | 0.959 | 0.895 | 0.851 | 0.57 | 0.759 | 0.745 | 0.574 | 0.392
NCI-H2342 |  |  |  |  | 1.07 | 0.944 | 0.84 | 0.945 | 0.765 | 0.957 | 0.932 | 1.02 | 0.761 | 1.15 | 0.943 | 0.973 | 0.784
NCI-H522 |  |  |  |  | 0.975 | 0.922 | 0.816 | 0.816 | 0.769 | 0.891 | 1.01 | 1.07 | 1 |  |  |  | 
NCI-H650 |  |  |  |  | 1.09 | 0.972 | 0.833 | 0.759 | 0.73 | 1.02 | 1 | 0.98 | 0.808 | 1.05 | 1.01 | 0.944 | 0.935
NCI-H661 |  |  |  |  | 0.993 | 1.02 | 1.04 | 0.981 | 0.93 | 0.925 | 0.948 | 0.835 | 0.678 | 0.93 | 0.883 | 0.796 | 0.681
